# Values joined by “and” are separate entries in the source; they are usually repeats but may differ in a detail not shown here. Equal values may be shown once. Inconclusive results and toxic doses are left out.
# Test system: BDF1 mice, L1210/MTX-resistant leukemia ip, survival T/C
# Test: NCI In Vivo Anticancer Drug Screen. Data for tumor model L1210 Leukemia resistant to Methotrexate; NSC 740 (intraperitoneal) in B6D2F1 (BDF1) mice
# Details: endpoint: mean survival time, higher = longer survival
# Description: The antitumor activity of compounds was measured in mice bearing transplantable tumors. Survival or tumor size were measured and the results are expressed as the measurement made in the treated group (T) divided by the measurement made in the vehicle treated control group (C). The tumor model used in this assay is L1210 Leukemia resistant to Methotrexate; NSC 740 (intraperitoneal) in B6D2F1 (BDF1) mice
# [1] = dose: 0.5 mg/kg/injection, schedule: Q01DX Z (ip), vehicle: carboxymethylcellulose (CMC)
# [2] = dose: 1.0 mg/kg/injection, schedule: Q01DX Z (ip), vehicle: carboxymethylcellulose (CMC)
# [3] = dose: 2.0 mg/kg/injection, schedule: Q01DX Z (ip), vehicle: carboxymethylcellulose (CMC)
# [4] = dose: 3.0 mg/kg/injection, schedule: Q01DX Z (ip), vehicle: carboxymethylcellulose (CMC)
# [5] = dose: 4.0 mg/kg/injection, schedule: Q01DX Z (ip), vehicle: carboxymethylcellulose (CMC)
# [6] = dose: 6.0 mg/kg/injection, schedule: Q01DX Z (ip), vehicle: carboxymethylcellulose (CMC)
# [7] = dose: 6.25 mg/kg/injection, schedule: Q01DX Z (ip), vehicle: carboxymethylcellulose (CMC)
# [8] = dose: 12.5 mg/kg/injection, schedule: Q01DX Z (ip), vehicle: carboxymethylcellulose (CMC)
# [9] = dose: 25.0 mg/kg/injection, schedule: Q01DX Z (ip), vehicle: carboxymethylcellulose (CMC)
# [10] = dose: 125.0 mg/kg/injection, schedule: Q01DX010 (ip), vehicle: saline
# [11] = dose: 250.0 mg/kg/injection, schedule: Q01DX010 (ip), vehicle: saline
# [12] = dose: 500.0 mg/kg/injection, schedule: Q01DX010 (ip), vehicle: saline
# [13] = dose: 12.5 mg/kg/injection, schedule: Q01DX010 (ip), vehicle: saline
# [14] = dose: 200.0 mg/kg/injection, schedule: Q01DX010 (ip), vehicle: saline
# [15] = dose: 25.0 mg/kg/injection, schedule: Q01DX010 (ip), vehicle: saline
smiles,measurement,setting,value
N[C@@H](Cc1ccc(N(CCCl)CCCl)cc1)C(=O)O,T/C,[1],114 % of control
same,T/C,[2],100 % of control
same,T/C,[3],110 % of control
same,T/C,[4],114 % of control
same,T/C,[5],107 % of control
same,T/C,[6],97 % of control
same,T/C,"dose: 8.0 mg/kg/injection, schedule: Q01DX Z (ip), vehicle: carboxymethylcellulose (CMC)",86 % of control
Oc1cc(CN(CCCl)CCCl)c(O)cc1CN(CCCl)CCCl,T/C,"dose: 0.25 mg/kg/injection, schedule: Q01DX Z (ip), vehicle: carboxymethylcellulose (CMC)",96 % of control
same,T/C,"dose: 0.37 mg/kg/injection, schedule: Q01DX Z (ip), vehicle: carboxymethylcellulose (CMC)",110 % of control
same,T/C,[1],88 % of control
same,T/C,"dose: 0.75 mg/kg/injection, schedule: Q01DX Z (ip), vehicle: carboxymethylcellulose (CMC)",97 % of control
same,T/C,[2],86 % of control
same,T/C,[3],88 % of control
N=[N+]=CC(=O)OCC(N)C(=O)O (stereo not given),T/C,"dose: 1.25 mg/kg/injection, schedule: Q01DX Z (ip), vehicle: saline",116 % of control and 121 % of control
same,T/C,"dose: 2.5 mg/kg/injection, schedule: Q01DX Z (ip), vehicle: saline",112 % of control
same,T/C,"dose: 10.0 mg/kg/injection, schedule: Q01DX Z (ip), vehicle: saline",117 % of control and 104 % of control
same,T/C,"dose: 40.0 mg/kg/injection, schedule: Q01DX Z (ip), vehicle: saline",101 % of control
same,T/C,"dose: 80.0 mg/kg/injection, schedule: Q01DX Z (ip), vehicle: saline",93 % of control
O=C(O)CCCc1ccc(N(CCCl)CCCl)cc1,T/C,[2],105 % of control
same,T/C,[3],97 % of control
same,T/C,[5],96 % of control
same,T/C,"dose: 5.0 mg/kg/injection, schedule: Q01DX Z (ip), vehicle: carboxymethylcellulose (CMC)",103 % of control
same,T/C,[7],107 % of control
same,T/C,[8],95 % of control
same,T/C,[9],90 % of control
CC(=O)N(C)C,T/C,"dose: 62.5 mg/kg/injection, schedule: Q01DX010 (ip), vehicle: saline",90 % of control and 98 % of control
same,T/C,"dose: 62.5 mg/kg/injection, schedule: Q01DX Z (ip), vehicle: saline",106 % of control
same,T/C,[10],102 % of control
same,T/C,"dose: 125.0 mg/kg/injection, schedule: Q01DX Z (ip), vehicle: saline",122 % of control
same,T/C,[11],93 % of control and 100 % of control
same,T/C,[12],93 % of control
same,T/C,"dose: 500.0 mg/kg/injection, schedule: Q01DX Z (ip), vehicle: saline",114 % of control and 88 % of control
same,T/C,"dose: 750.0 mg/kg/injection, schedule: Q01DX Z (ip), vehicle: saline",88 % of control
same,T/C,"dose: 1000.0 mg/kg/injection, schedule: Q01DX Z (ip), vehicle: methylcellulose (MC)",87 % of control
CSc1ncnc2c1ncn2C1OC(CO)C(O)C1O (stereo not given),T/C,"dose: 0.5 mg/kg/injection, schedule: Q01DX Z (ip), vehicle: saline",102 % of control
same,T/C,"dose: 1.0 mg/kg/injection, schedule: Q01DX Z (ip), vehicle: saline",99 % of control
same,T/C,"dose: 2.0 mg/kg/injection, schedule: Q01DX Z (ip), vehicle: saline",105 % of control
same,T/C,"dose: 4.0 mg/kg/injection, schedule: Q01DX Z (ip), vehicle: saline",112 % of control
same,T/C,"dose: 6.25 mg/kg/injection, schedule: Q01DX Z (ip), vehicle: saline",97 % of control
same,T/C,"dose: 10.0 mg/kg/injection, schedule: Q01DX010 (ip), vehicle: saline",107 % of control
same,T/C,[13],109 % of control
same,T/C,"dose: 12.5 mg/kg/injection, schedule: Q01DX Z (ip), vehicle: saline",93 % of control
same,T/C,"dose: 15.0 mg/kg/injection, schedule: Q01DX010 (ip), vehicle: saline",106 % of control
same,T/C,"dose: 20.0 mg/kg/injection, schedule: Q01DX010 (ip), vehicle: saline",102 % of control
CC1(C)N=C(N)N=C(N)N1c1cccc(Br)c1,T/C,[3],97 % of control
same,T/C,[7],109 % of control
same,T/C,[8],98 % of control
same,T/C,[9],98 % of control
same,T/C,"dose: 50.0 mg/kg/injection, schedule: Q01DX Z (ip), vehicle: carboxymethylcellulose (CMC)",92 % of control
CC(=O)Nc1ccc2nc3ccc(NC(C)=O)cc3[n+](-c3ccccc3)c2c1,T/C,[3],107 % of control
same,T/C,[4],88 % of control
same,T/C,[6],100 % of control
C[C@@H]1C[C@H]2CC[C@H](O2)[C@H](C)C(=O)O[C@@H](C)C[C@@H]2CC[C@@H](O2)[C@@H](C)C(=O)O[C@H](C)C[C@H]2CC[C@H](O2)[C@H](C)C(=O)O[C@@H](C)C[C@@H]2CC[C@@H](O2)[C@@H](C)C(=O)O1,T/C,"dose: 100.0 mg/kg/injection, schedule: Q01DX Z (ip), vehicle: methylcellulose (MC)",89 % of control
O=c1cn[nH]c(=O)[nH]1,T/C,[10],93 % of control
same,T/C,[11],91 % of control and 97 % of control
same,T/C,[12],86 % of control and 90 % of control
CN(C)CC(=O)c1ccc(O)c(O)c1,T/C,[14],117 % of control
same,T/C,"dose: 300.0 mg/kg/injection, schedule: Q01DX010 (ip), vehicle: saline",109 % of control
same,T/C,"dose: 450.0 mg/kg/injection, schedule: Q01DX010 (ip), vehicle: saline",104 % of control
same,T/C,"dose: 675.0 mg/kg/injection, schedule: Q01DX010 (ip), vehicle: saline",111 % of control
O=C(Nc1ccc(NC2=NCCN2)cc1)c1ccc(C(=O)Nc2ccc(NC3=NCCN3)cc2)cc1,T/C,"dose: 2.0 mg/kg/injection, schedule: Q01DX010 (ip), vehicle: saline",167 % of control and 219 % of control
same,T/C,"dose: 4.0 mg/kg/injection, schedule: Q01DX010 (ip), vehicle: saline",248 % of control and 257 % of control
same,T/C,"dose: 8.0 mg/kg/injection, schedule: Q01DX010 (ip), vehicle: saline",188 % of control and 243 % of control
same,T/C,"dose: 16.0 mg/kg/injection, schedule: Q01DX010 (ip), vehicle: saline",101 % of control and 106 % of control
CCN(CC)CCNc1ccc(C)c2sc3ccccc3c(=O)c12,T/C,"dose: 1.6 mg/kg/injection, schedule: Q01DX Z (ip), vehicle: methylcellulose (MC)",89 % of control and 93 % of control
same,T/C,"dose: 3.2 mg/kg/injection, schedule: Q01DX Z (ip), vehicle: methylcellulose (MC)",93 % of control
same,T/C,"dose: 6.3 mg/kg/injection, schedule: Q01DX Z (ip), vehicle: methylcellulose (MC)",93 % of control
same,T/C,"dose: 20.0 mg/kg/injection, schedule: Q01DX Z (ip), vehicle: carboxymethylcellulose (CMC)",112 % of control
same,T/C,[15],159 % of control
same,T/C,"dose: 40.0 mg/kg/injection, schedule: Q01DX Z (ip), vehicle: carboxymethylcellulose (CMC)",106 % of control
same,T/C,"dose: 50.0 mg/kg/injection, schedule: Q01DX010 (ip), vehicle: saline",124 % of control
same,T/C,"dose: 80.0 mg/kg/injection, schedule: Q01DX Z (ip), vehicle: carboxymethylcellulose (CMC)",113 % of control
same,T/C,"dose: 100.0 mg/kg/injection, schedule: Q01DX010 (ip), vehicle: saline",213 % of control
same,T/C,[14],86 % of control
O=c1cnn(C2OC(CO)C(O)C2O)c(=O)[nH]1 (stereo not given),T/C,"dose: 125.0 mg/kg/injection, schedule: Q01DX Z (ip), vehicle: methylcellulose (MC)",97 % of control
same,T/C,"dose: 250.0 mg/kg/injection, schedule: Q01DX Z (ip), vehicle: methylcellulose (MC)",95 % of control
same,T/C,"dose: 500.0 mg/kg/injection, schedule: Q01DX Z (ip), vehicle: methylcellulose (MC)",104 % of control
CC/C(=C(/CC)c1ccc(O)cc1)c1ccc(O)cc1,T/C,[13],94 % of control
same,T/C,"dose: 12.5 mg/kg/injection, schedule: Q01DX010 (sc), vehicle: steriod suspending solution",92 % of control
same,T/C,[15],94 % of control
same,T/C,"dose: 50.0 mg/kg/injection, schedule: Q01DX010 (sc), vehicle: steriod suspending solution",89 % of control
same,T/C,"dose: 100.0 mg/kg/injection, schedule: Q01DX010 (sc), vehicle: steriod suspending solution",86 % of control and 87 % of control
S=P(N1CCCC1)(N1CC1)N1CC1,T/C,"dose: 0.03 mg/kg/injection, schedule: Q01DX Z (ip), vehicle: methylcellulose (MC)",93 % of control
same,T/C,"dose: 0.05 mg/kg/injection, schedule: Q01DX Z (ip), vehicle: methylcellulose (MC)",91 % of control
same,T/C,"dose: 0.1 mg/kg/injection, schedule: Q01DX Z (ip), vehicle: methylcellulose (MC)",99 % of control
